Results on five compounds are retold here after patent US4613604A, “Hydroxymethyl derivatives of 5-benzylacyclouridine and 5-benzoyloxybenzylacyclouridine and their use as potentiators for 5-fluoro-2'-deoxyuridine” (Brown University Research Foundation, priority 1985, dated 1986).

The target of data set [1] is uridine phosphorylase. Briefly: Inhibition of uridine phosphorylase from mouse liver (105,000×g supernatant of liver homogenate). Type of data set: biochemical. The note with it: mouse liver enzyme; apparent Ki = Ki(1+[S]/Km); type of inhibition not characterized. As for the experimental part: (§1) Testing of compounds HM-BAU and HM-BBAU as inhibitors of uridine phosphorylase was performed using 105,000×g supernatant of mouse liver and human liver homogenates. Enzyme assays were carried out as described in Niedzwicki et al., Biochem. Pharm. 31, 1857 (1982), supra. Apparent Ki values are related to Ki by the following equation: [formula] where Kis and Kii are the inhibition constants that would have been estimated from the replots of slope and intercept, respectively, of a Lineweaver-Burk plot vs [I]. If a compound is a competitive inhibitor with respect to the substrate uridine. Kii =.infin. and Kis =Ki. Therefore:
(§2) apparent Ki =Ki (1+[S]/Km)
(§3) Thus, the true Ki values would be lower than the apparent Ki values by a factor of (1+S/Km). It must be noted, however, that these compounds were not characterized with regard to the type of inhibition (i.e. competitive, non-competitive or uncompetitive), nor were they tested as substrates for uridine phosphorylase.

The target in data set [2] is uridine phosphorylase. Briefly: Inhibition of uridine phosphorylase from human liver (105,000×g supernatant of liver homogenate). Type of data set: biochemical. The conditions noted are these: for Ki: human liver enzyme, apparent Ki = Ki(1+[S]/Km), type of inhibition not characterized; for inhibition of human liver uridine phosphorylase, in words: compared with BAU and BBAU. The protocol: as §1, §2, §3

Data set [3] has as its system human pancreatic carcinoma (DAN). Briefly: Growth inhibition of pancreatic carcinoma DAN cells in culture by FdUrd with or without potentiator. The conditions noted are these: for in vitro antineoplastic activity of FdUrd with potentiator, in words: DAN cells, combination with FdUrd; for effect of potentiator alone on the growth of DAN in culture: potentiator alone at 50 μM, no FdUrd. Type of data set: cell-based. The protocol:
Determination of the activities of HM-BAU and HM-BBAU as potentiators of FdUrd anti-neoplastic activity was carried out using a human pancreatic carcinoma (DAN) in culture. Details of the procedure are described in Chu et al., supra. Table 1 summarizes the effect of HM-BAU and HM-BBAU upon the inhibitory effect of FdUrd on the growth of pancreatic DAN cells in culture.
FdUrd alone at 0.1 and 0.3 μM inhibited the cell growth by 20% and 34% respectively.

The nature of data set [4]: Water solubility. It counts as physicochemical. The note with it: in words.
For data set [5] the following is noted: background statement, in words; cited from earlier work.
Data set [6] concerns uridine phosphorylase. The note with it: among the acyclouridines developed; cited from earlier work.
Data set [7] deals with cleavage of FdUrd in certain tumor extracts. The conditions noted are these: cited from earlier work.
In data set [8] the test system is human pancreatic carcinoma (DAN). The conditions noted are these: in vitro; cited from earlier work.
Data set [9] deals with human lung carcinoma (LX-1). The note with it: LX-1, in vitro; cited from earlier work.
The test system of data set [10] is human pancreatic carcinoma (DAN). The note with it: in vivo; cited from earlier work.
In data set [11] the test system is human lung carcinoma (LX-1). The note with it: LX-1, in vivo; cited from earlier work.
The mark [12] stands for this setting: potentiator 50 μM, added 5 minutes prior to FdUrd 0.1 μM, P < 0.001 vs control, p < 0.01 from one another.
[13] abbreviates: potentiator 50 μM, added 5 minutes prior to FdUrd 0.3 μM.

Values joined by “and” are separate entries in the source; they are usually repeats but may differ in a detail not shown here. Equal values may be shown once. Read-outs that look alike come from different tables or passages of the source.

For the compound `O=c1[nH]c(=O)n(COC(CO)CO)cc1Cc1ccccc1` [HM-BAU, 5-Benzyl-1-[(1,3-dihydroxy-2-propoxy)methyl]uracil], the Ki worked out at 1600 nM in [1] and 2500 nM in [2]. Moreover, the “inhibition of human liver uridine phosphorylase, in words” value in data set [2] was “excellent inhibitors of this enzyme and superior to BAU and BBAU”. Also, the “in vitro antineoplastic activity of FdUrd with potentiator, in words” value in data set [3] is reported as “significantly potentiated”. Also, the “% Growth Inhibition of DAN cells in culture” value (“% Growth Inhibition” for short) in data set [3] (setting [12]) is 63.4 ± 1.1% and 63%; in data set [3] (setting [13]), 67.8 ± 1.7% and 68%. The “effect of potentiator alone on the growth of DAN in culture” value in [3] is “do not affect the growth of DAN in culture”. The water solubility entry in data set [4] is reported as “water soluble”.

Regarding `O=c1[nH]c(=O)n(COCCO)cc1Cc1ccccc1` [BAU, 5-benzylacyclouridine], the water solubility entry in [5] is reported as “not very water soluble”. For the same compound, the “effectiveness as uridine phosphorylase inhibitor, in words” value in [6] is “particularly effective”. The “inhibition of cleavage of FdUrd” value in data set [7] was “inhibit the cleavage of FdUrd”. Further, the “enhancement of antineoplastic activity of FdUrd” value in data set [8], in data set [9], in data set [10] and in [11] was “enhance the antineoplastic activity of FdUrd” each time.

For the compound `O=c1[nH]c(=O)n(COCCO)cc1Cc1cccc(OCc2ccccc2)c1` [BBAU, 5-benzyloxybenzylacyclouridine], the water solubility entry in [5] is reported as “not very water soluble”. Also, the “effectiveness as uridine phosphorylase inhibitor, in words” value in [6] was “particularly effective”. Further, the “inhibition of cleavage of FdUrd” value in data set [7] is “inhibit the cleavage of FdUrd”. For the same compound, the “enhancement of antineoplastic activity of FdUrd” value in data set [8], in data set [9], in data set [10] and in [11] was “enhance the antineoplastic activity of FdUrd” throughout.

As to `O=c1[nH]c(=O)n(COC(CO)CO)cc1Cc1cccc(OCc2ccccc2)c1` [HM-BBAU, 5-(m-Benzyloxybenzyl)-1-[(1,3-dihydroxy-2-propoxy)methyl]uracil], the Ki was 320 nM in data set [1] and 650 nM in data set [2]. In addition, in data set [2], the “inhibition of human liver uridine phosphorylase, in words” value was “excellent inhibitors of this enzyme and superior to BAU and BBAU”. In addition, the “in vitro antineoplastic activity of FdUrd with potentiator, in words” value in [3] was “significantly potentiated”. The “% Growth Inhibition” value is 73.6 ± 0.3% and 74% in data set [3] (setting [12]); 74% in data set [3] (potentiator 50 μM, added 5 minutes prior to FdUrd 0.1 μM, P < 0.001 vs control, p < 0.01 from one another, listed as HN-BBAU); 83.2 ± 1.3% and 83% in data set [3] (setting [13]); 83% in data set [3] (potentiator 50 μM, added 5 minutes prior to FdUrd 0.3 μM, listed as HN-BBAU). Also, the “effect of potentiator alone on the growth of DAN in culture” value in data set [3] was “do not affect the growth of DAN in culture”. The water solubility result in data set [4] is reported as “water soluble”.

For `O=c1[nH]c(=O)n([C@H]2C[C@H](O)[C@@H](CO)O2)cc1F` [FdUrd, 5-fluoro-2'-deoxyuridine], the “% Growth Inhibition” value in [3] (FdUrd 0.1 μM alone, no potentiator) came to 20%; in data set [3] (FdUrd 0.3 μM alone, no potentiator) it was 34%. In data set [3] (Homo sapiens, FdUrd 0.1 μM alone, no potentiator), the inhibition at 0.1 µM stood at 20.2 ± 1.1%. The inhibition at 0.3 µM in data set [3] (Homo sapiens, FdUrd 0.3 μM alone, no potentiator) came out at 33.8 ± 1.3%. Also, the inhibition at 1 µM in data set [3] (Homo sapiens, FdUrd 1.0 μM alone, no potentiator) was 66 ± 1.4%.

One may read the inhibition as the change of the read-out against control, counted positive when it falls.
